Experimental data as given in patent US8846946B2, “Germinal alkoxy/alkylspirocyclic substituted tetramate derivatives” (Bayer CropScience AG, priority 2008, dated 2014).

Key:
Assay type in all cases: in vivo
Lucilia cuprina larvae = assay: Lucillia cuprina test (LUCICU); settings: application rate of 100 ppm, treated horse meat
Method: (§1) • Solvent: dimethyl sulphoxide
(§2) To prepare a suitable active compound preparation, 1 part by weight of active compound is mixed with the stated amount of solvent, and the concentrate is diluted with water to the desired concentration.
Vessels containing horse meat treated with the active compound preparation of the desired concentration are populated with Lucilia cuprina larvae.
After the desired period of time, the kill in % is determined. 100% means that all of the larvae have been killed; 0% means that none of the larvae have been killed.

Boophilus microplus = Boophilus microplus test (BOOPMI injection); settings: application rate of 20 μg/animal, injection into the abdomen
Method: as §1, §2
The solution of active compound is injected into the abdomen (Boophilus microplus), and the animals are transferred into dishes and kept in a climatised room. The activity is assessed by […] of fertile eggs.
After the desired period of time, the effect in % is determined. 100% means that none of the ticks has laid any fertile eggs.

Summer wheat = assay: Container trials with cereal in a greenhouse, use of safeners (mefenpyr 1 day prior to herbicide application); settings: 28 days after application, without safener
Method: Seeds of monocotyledonous and dicotyledonous weed and crop plants are placed in sandy loam in wood fibre pots, covered with soil and cultivated in a greenhouse under good growth conditions. 2 to 3 weeks after sowing, the test plants are treated at the one-leaf stage. The test compounds, formulated as wettable powders (WP), are then, with a water application rate of 600 l/ha (converted), with 0.2% of wetting agent added, sprayed at various dosages onto the green parts of the plants. After the test plants have […], the activity of the preparations is rated visually in comparison to untreated controls (herbicidal activity in percent: 100% activity=the plants have died, 0% activity=like control plants).
If it is additionally to be tested as to whether safeners can improve the plant compatibility of test substances in the case of crop plants, the following options are used for applying the safener: • seeds of the crop plants are, before sowing, dressed with the safener substance (the amount of safener stated in percent, based on the weight of the seed) • before application of the test substances, the crop plants are sprayed with the safener at a certain application rate per hectare (usually 1 day before the application of the test substances) • the safener is applied together with the test substance as a tank mix (the amount of safener stated in g/ha or as a ratio, based on the herbicide). Container Trials with Cereal in a Greenhouse Mefenpyr 1 Day Prior to Herbicide Application

Row | SMILES | kill in % (larvae killed) (Lucilia cuprina larvae) [%] | efficacy (no fertile eggs laid) (Boophilus microplus) | Summer wheat observed (%) (Summer wheat; application rate 12.5 g a.i./ha) | Summer wheat observed (%) (Summer wheat; application rate 25 g a.i./ha) | Summer wheat observed (%) (Summer wheat; application rate 50 g a.i./ha)
1 | COC1(C)CCC2(CC1)NC(=O)C(c1c(C)cc(Cl)cc1C)=C2O (mixture of isomers) [I-a-3] | ≥ 80 | good efficacy |  |  | 
2 | CCc1cc(C)cc(C)c1C1=C(O)C2(CCC(CC)(OC)CC2)NC1=O (mixture of isomers) [I-a-64] |  |  | 20 | 60 | 70
3 | CCOC(=O)OC1=C(c2c(C)cc(C)cc2C)C(=O)NC12CCC(C)(OC)CC2 (stereo not drawn) [I-c-3] |  | good efficacy |  |  | 
